From patent US20210017569A1, “Ligase Screening Assay” (UNIVERSITY OF DUNDEE, priority 2018, published 2021)
One block for each molecule: values may come before it.

Columns and labels:
Type in all cases: biochemical
GST-MYCBP2 = molecular target: T1, GST-MYCBP2 (Homo sapiens, UniProt O75592); assay: Multiple turnover amino acid and peptide panel discharge assays; conditions: for function as proxy substrate (hydroxy probe) of MYCBP2: tested herein as proxy substrates; for discharge activity / Ub modification in amino acid panel: amino acid nucleophile, UBE2D3~Ub, MYCBP2cat
T1 construct: GST-tagged MYCBP2cat (Ser4378-Phe4640), wt and mutants, were expressed at 16° C. overnight; made in house; host or cells: E. coli BL21-DE3
T1 sequence (O75592 4416-4678 limits assumed): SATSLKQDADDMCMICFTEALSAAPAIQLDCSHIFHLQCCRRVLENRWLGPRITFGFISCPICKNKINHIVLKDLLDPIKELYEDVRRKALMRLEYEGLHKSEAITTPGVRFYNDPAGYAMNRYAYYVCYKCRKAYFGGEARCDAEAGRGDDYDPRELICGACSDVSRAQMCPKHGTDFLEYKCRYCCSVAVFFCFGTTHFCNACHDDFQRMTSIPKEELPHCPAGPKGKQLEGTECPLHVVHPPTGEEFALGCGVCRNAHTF
Experimental: Stock solutions (0.5 M) of amino acids were dissolved in MQ water and pH was adjusted to pH ˜8. Peptides of the sequence Ac-EGXGN-NH2 (X=K, S or T) were obtained from Bio-Synthesis Inc. Stock peptide solutions (200 mM) were dissolved in MQ water and pH was adjusted to pH ˜8. An E2 (UBE2D3) charging reaction was carried out in buffer (40 mM Na2HPO4—HCl pH 8.0, 150 mM NaCl, 0.5 mM TCEP) containing UBE1 (250-500 nM), UBE2D3 (20 μM), Ub (50 μM), or Cy3B-Ub (25 μM), MgCl2 (5 mM) and ATP 10 (mM). The reaction was incubated at 37° C. for 15 minutes and then equilibrated to 23° C. for 3 minutes. An equivalent volume of nucleophile sample containing small molecule/peptide nucleophile (100 mM) and GST-MYCBP2 (10 μM) was then added and incubated at 23° C. Samples were taken at the specified time points and analyzed as described for Tris/glycerol-mediated E2 discharge assay.
Cy3B-Ub was visualized using a Chemidoc Gel Imaging System (Biorad). LC-MS was carried out as described for Tris/glycerol discharge but amino acid substrate samples were quenched by the addition of 2:1 parts quenching solution (75% acetonitrile, 2% TFA) and peptide substrate samples were quenched by addition of 1:1 parts quenching solution.

MYCBP2 = molecular target: T2, MYCBP2 (Homo sapiens, UniProt O75592); assay: Tris/glycerol-mediated E2 discharge assay with LC-MS analysis; conditions: Tris 50 mM and glycerol ~65 mM in assay buffer
T2 construct: GST-tagged MYCBP2cat (Ser4378-Phe4640), wt and mutants, were expressed at 16° C. overnight; GST (N); made in house; host or cells: E. coli BL21-DE3
T2 sequence (O75592 4416-4678 limits assumed): T1 sequence (O75592 4416-4678 limits assumed)
Experimental: Assays were carried out in buffer (50 mM Tris-HCl pH 7.5, 150 mM NaCl, 0.5 mM TCEP, 5 mM MgCl2) containing the indicated MYCBP2 mutant (15 μM), UBE1 (1.5 μM), UBE2D3 (15 μM), Ub (37 μM) and ATP (10 mM). The reactions were incubated at 37° C. for 30 minutes. Reactions were terminated by the addition of 4×LDS loading buffer (with and without ˜680 mM 2-mercaptoethanol). A C4572S sample was further incubated with 0.14 N NaOH at 37° C. for 20 minutes and samples were resolved by SDS-PAGE (4-12% NuPage gel) and visualized by Coomassie staining.
Reactions were prepared as described for discharge assay. After 30 minutes, the reaction was analyzed using an Agilent 1200/6130 LC-MS system (Agilent Technologies) using a 10-75% gradient over 20 minutes (buffer A=H2O+0.05% TFA, buffer B=acetonitrile+0.04% TFA).

MYCBP2cat = molecular target: T3, MYCBP2cat (Homo sapiens, UniProt O75592); assay: NMNAT2 ubiquitination assay; conditions: base lability and thiol resistance test
T3 construct: GST-tagged MYCBP2cat (Ser4378-Phe4640), wt and mutants, were expressed at 16° C. overnight; GST (N, cleaved yes); made in house; host or cells: E. coli BL21-DE3
T3 sequence (O75592 4416-4678 limits assumed): T1 sequence (O75592 4416-4678 limits assumed)
Experimental: NMNAT2 (5 μM) was mixed with E1 (500 nM), UBE2D3 (10 μM), MYCBP2cat (10 μM), Ub (50 μM), ATP (10 mM) and made up with 10×pH 7.5 buffer (40 mM Na2H2PO4 pH 7.5, 150 mM NaCl, 5 mM MgCl2, 0.5 mM TCEP). The reactions were incubated at 37° C. for 1 hour and terminated by the addition of 4×LDS loading buffer (either non-reducing or reducing). For base lability test, reactions were supplemented with 0.14 N NaOH and then further incubated at 37° C. for 20 minutes.

GST-MYCBP2cat = molecular target: T4, GST-MYCBP2cat (Homo sapiens, UniProt O75592); assay: Multiple turnover E2 discharge panel (threonine discharge); conditions: 17 E2s tested
T4 construct: GST-tagged MYCBP2cat (Ser4378-Phe4640), wt and mutants, were expressed at 16° C. overnight; made in house; host or cells: E. coli BL21-DE3
T4 sequence (O75592 4416-4678 limits assumed): T1 sequence (O75592 4416-4678 limits assumed)
Experimental: E2s were screened for threonine discharge activity with GST-MYCBP2cat as described for the amino acid panel. E2s were also incubated in the presence of threonine but in the absence of GST-MYCBP2cat. These samples provided a reference to distinguish between intrinsic E2˜Ub instability and E3-dependent discharge.

Molecule: O=S(=O)(O)CCN1CCN(CCO)CC1 [HEPES, 4-(2-hydroxyethyl)-1-piperazineethanesulfonic acid]
function as proxy substrate (hydroxy probe) of MYCBP2 (GST-MYCBP2): functional

Molecule: NMNAT2: Nicotinamide Mononucleotide Adenyltransferase, putative MYCBP2 substrate
ubiquitination by MYCBP2cat in vitro (MYCBP2cat): hydroxide labile but thiol resistant ubiquitination

Molecule: UBE2D1: E2 conjugating enzyme
E2 partner activity with MYCBP2cat (GST-MYCBP2cat): robust activity

Molecule: UBE2D3: E2 conjugating enzyme, N-terminally 6His-tagged recombinant protein
E2 partner activity with MYCBP2cat (GST-MYCBP2cat): robust activity

Results, then the molecule that gave them:

function as proxy substrate (hydroxy probe) of MYCBP2 (GST-MYCBP2): functional | conversion of Ub into condensation product with nucleophile (MYCBP2): quantitatively converted
Molecule: OCC(O)CO [glycerol]

discharge activity / Ub modification in amino acid panel (GST-MYCBP2): low level
Molecule: NCCCC[C@H](N)C(=O)O [lysine]

function as proxy substrate (hydroxy probe) of MYCBP2 (GST-MYCBP2): functional
Molecule: N[C@@H](CO)C(=O)O [serine]

discharge activity / Ub modification in amino acid panel (GST-MYCBP2): strikingly enhanced | selectivity for threonine over serine (GST-MYCBP2; amino acid substrates, MS-based quantification of Ub esterification): ~10 fold | Threonine selectivity in a peptide context (GST-MYCBP2; peptides Ac-EGXGN-NH2 (X=K, S or T)): 3 fold | function as proxy substrate (hydroxy probe) of MYCBP2 (GST-MYCBP2): functional
Molecule: C[C@@H](O)[C@H](N)C(=O)O [threonine]

function as proxy substrate (hydroxy probe) of MYCBP2 (GST-MYCBP2): functional | conversion of Ub into condensation product with nucleophile (MYCBP2): quantitatively converted
Molecule: tris(hydroxymethyl)aminomethane
